Experimental data: patent US11891642B2, “Biocatalytic techniques” (HYPHA DISCOVERY LIMITED, priority 2018, dated 2024)
Positions count from the first letter of the chain named. In names and notes the source's numbering stands.

Tests used:
[1] = tested on: R63W mutant of codon optimised P450SriC12; assay: Cell-free hydroxylase/dealkylase assay, lyophilised extract incubated with bosentan, UPLC-MS; format: biochemical, Streptomyces rimosus NRRL-2234; details: 0.1 mg/ml bosentan, 27° C., 16-20 hours
Description: (§1) Lyophilised material of recombinant P450, ferredoxin and ferredoxin reductase proteins was made as described in Example 3 and reconstituted in high purity water to 90% the original volume. Biocatalysis was performed at 27° C. in the following conditions: 50 mM potassium phosphate pH 7.4, 5 mM MgCl2, 0.1 mg/ml substrate compound such as bosentan, cyclosporine A, diclofenac, ritonavir, tivantinib, valsartan or vanoxerine, native concentration of P450, ferredoxin and ferredoxin reductase as extracted (Example 3). Reactions were initiated by addition of 10× stock of cofactor mixture (50 mM G6P, 10 mM NADP, 10 UN/ml G6PDH) to provide a final volume of e.g., 100 μL. After 16-20 hours, reactions were extracted with an equal volume of acetonitrile, centrifuged to remove precipitated proteins and conversion assessed by UPLC-MS analysis.
(§2) Acidic Analysis Conditions • Column: Acquity UPLC BEH Shield RP18 1.7 μm 2.1 mm i.d. 50 mm length • Column temperature: 45° C. • Solvents: H2O, B: Acetonitrile, both with 0.1% Formic acid • Flow rate: 1.0 ml/min • Gradient (A9%/B %): t=0 mins: 98/2 to 2/98 at t=2.4 mins and held for a further 0.4 mins (2.8 mins total), return to 98/2 over 0.05 mins and re-equilibrated for 0.15 mins (t=3 mins) at a flow-rate of 1.0 mL/min.
(§3) Basic Analysis Conditions • Column: Waters Acquity UPLC BEH C18 1.7 μm 2.1 mm i.d. 50 mm length • Column temperature: 45° C. • Solvents: A: 10 mM ammonium bicarbonate in H2O, B: Acetonitrile • Gradient (A %/B %): t=0 mins: 98/2 to 2/98 at t=2.4 mins and held for a further 0.4 mins (2.8 mins total), return to 98/2 over 0.05 mins and re-equilibrated for 0.15 mins (t=3 mins) at a flow-rate of 1.0 mL/min. • Detector: Waters Acquity UPLC PDA (UV-Vis detection) and Waters Acquity UPLC QDA (MS)
(§4) The resulting plasmids containing the new mutants genes were transformed into recombinant E. coli strains for expression as described in Example 1, cultured and induced as described in Example 2, extracted and processed as described in Example 3 and tested for biocatalytic activity as described in Example 5 above.

[2] = tested on: native codon optimised P450SriC12; assay: as above; format: biochemical, Streptomyces rimosus NRRL-2234; details: 0.1 mg/ml bosentan, 27° C., 16-20 hours
Description: as §1, §2, §3, §4

[3] = tested on: P450SriC12-ferredoxinSriF05-ferredoxin reductaseSCF15A expressed in S. lividans HD002; assay: Whole-cell biotransformation of ritonavir in 24-well block format; format: cell-based, Streptomyces rimosus NRRL-2234; details: for +16 Da (1.67 min) / +16 Da (1.72 min) / +16 Da (1.76 min) / Parent (1.90 min): ritonavir 100 mg/L
Description: (§5) Approximately 10^8 cells of S. lividans HD000 and S. lividans […] inoculated separately into 50 mL of culture medium (containing 5 g/L glycerol; 20 g/L glucose; 5 g/L yeast extract peptone; 2 g/L meat extract; 5 g/L mycological peptone; 1 g/L ammonium phosphate dibasic; 3 g/I sodium chloride; 0.3 g/L magnesium sulphate heptahydrate and 3.5 g/L calcium carbonate, adjusted to pH 7.0 and sterilised at 115° C. for 15 minutes) in 250 mL baffled flasks and incubated shaking at 27° C., 200 rpm for 48 hours. In a 24-well micro-bioreactor block (EnzyScreen, Netherlands), 2.5 mL of S. lividans HD000 and S. lividans HD002 were dosed with ritonavir at a concentration of 100 mg/L. Ritonavir was formulated with 20% hydroxypropyl-p-cyclodextrin (prepared via 1 in 25 dilution of a stock solution of 25 mg ritonavir in 1 mL DMSO). Cultures were time-coursed daily after dosing to assess the production of the target metabolite hydroxy-ritonavir as in Example 5.
(§6) Conversions of ritonavir improved with longer incubations with the drug.

[4] = tested on: S. lividans HD000 negative control; assay: Whole-cell biotransformation of ritonavir in 24-well block format, empty-vector strain; format: cell-based, Streptomyces lividans; details: for +16 Da (1.67 min) / +16 Da (1.72 min) / +16 Da (1.76 min) / Parent (1.90 min): ritonavir 100 mg/L
Description: As a negative control, an empty plJ12551 expression vector was introduced into S. lividans TK24 by triparental conjugation as described above and designated as S. lividans […].
as §5, §6

[5] = Concentration of cytochrome P450 in cell-free extract by carbon monoxide difference spectrum (Omura and Sato); details: mutant P450SriC12 expressed in E. coli BL21 (DE3)
Description: Measurement is performed according to the method of Omura and Sato et al. (J Biol Chem, 239. 1964, 2370). That is to say, cytochrome P450 is analyzed quantitatively using the following formula, based on the difference in the absorbance of the reduced CO versus the reduced difference spectrum at 450 nm and 490 nm.
Measurement of the concentration of cytochrome P450 were performed according to the method of Omura and Sato et al. (J Biol Chem, 239. 1964, 2370). Cytochrome P450 concentrations of cell-free extracts of induced E. coli BL21 (DE3) Rosetta2 & Tuner cells harbouring either pHD05-SriC01, pHD02-SriC12-SriF05, pHD05-SriC14-SriF06, pHD05-SriC20, pHD05-SriC22 or pHD05-SriC51-SriF08 are shown in Table 2. Carbon monoxide difference spectra for P450SriC01, P450SriC12, P450SriC14, P450SriC20, P450SriC22 and P450SriC51 are shown in FIGS. 9, 10, 11, 19, 20 & 21 respectively.
The native and codon optimised P450sriC12 and ferredoxinsriF05 in pHD02-SriC12-SriF05 and pHD02-SriC12CO-SriF05CO respectively were introduced into E. coli BL21 (DE3). The recombinant strains were cultured and proteins were induced as in Example 2. The cell-free extract material was obtained as in Example 3 and carbon monoxide difference spectrums were measure to calculate the concentration of cytochrome P450.
as §4, with “above. The carbon monoxide difference spectrum result of R63W mutant of codon optimised P450SriC12 is shown in FIG. 14 and the cytochrome P450 concentration of mutant P450SriC12 are shown in Table 5.” for “above.”

With `COc1ccccc1Oc1c(NS(=O)(=O)c2ccc(C(C)(C)C)cc2)nc(-c2ncccn2)nc1OCCO` [bosentan] the hydroxy-bosentan product [1] was “no hydroxy-bosentan product was detected”, the “yield of the O-demethyl-bosentan product” value [1] was 63.2% and the “yield of the O-demethyl-bosentan product” value [2] was 3.3%.

For `CC(C)c1nc(CN(C)C(=O)N[C@H](C(=O)N[C@@H](Cc2ccccc2)C[C@H](O)[C@H](Cc2ccccc2)NC(=O)OCc2cncs2)C(C)C)cs1` [ritonavir], the “+16 Da (1.67 min)” value ([3]; sampling 24 hour) was 7.1%, the “+16 Da (1.72 min)” value ([3]; sampling 24 hour) was 18.9% and the “+16 Da (1.76 min)” value ([3]; sampling 24 hour) was 1.4%. For the same molecule, the “Parent (1.90 min)” value ([3]; sampling 24 hour) was 68.5%, the “+16 Da (1.67 min)” value ([3]; sampling 48 hour) was 8.6% and the “+16 Da (1.72 min)” value ([3]; sampling 48 hour) was 23.6%. The “+16 Da (1.76 min)” value ([3]; sampling 48 hour) was 2.8%, the “Parent (1.90 min)” value ([3]; sampling 48 hour) was 58.6% and the “+16 Da (1.67 min)” value ([3]; sampling 120 hour) was 9.1%. For the same molecule, the “+16 Da (1.72 min)” value ([3]; sampling 120 hour) was 28.1%, the “+16 Da (1.76 min)” value ([3]; sampling 120 hour) was 1.4% and the “Parent (1.90 min)” value ([3]; sampling 120 hour) was 51.2%. For the same molecule, the “hydroxylation of ritonavir (in words)” value ([3]; whole-cell biotransformation) was “able to hydroxylate ritonavir”, the “+16 Da (1.67 min)” value ([4]; sampling 24 hour) was 0.0% and the “+16 Da (1.72 min)” value ([4]; sampling 24 hour) was 0.0%. For the same molecule, the “+16 Da (1.76 min)” value ([4]; sampling 24 hour) was 0.0%, the “Parent (1.90 min)” value ([4]; sampling 24 hour) was 100.0% and the “+16 Da (1.67 min)” value ([4]; sampling 48 hour) was 0.0%. The “+16 Da (1.72 min)” value ([4]; sampling 48 hour) was 0.0%, the “+16 Da (1.76 min)” value ([4]; sampling 48 hour) was 0.0% and the “Parent (1.90 min)” value ([4]; sampling 48 hour) was 100.0%. The “+16 Da (1.67 min)” value ([4]; sampling 120 hour) was 0.0%, the “+16 Da (1.72 min)” value ([4]; sampling 120 hour) was 0.0% and the “+16 Da (1.76 min)” value ([4]; sampling 120 hour) was 0.0%. For the same molecule, the “Parent (1.90 min)” value ([4]; sampling 120 hour) was 100.0% and the “hydroxylation of ritonavir (in words)” value ([4]; whole cells) was “unable to hydroxylate ritonavir”.

B1: Mutant 17 R63W R74Y: R63W R74Y mutant of codon optimised cytochrome SriC12, SEQ ID NO: 251 (protein)
chain: MTEALPFPQDRTCPYDPPAGYQPLRDSRPLSRVTLYDGRPAWVVTGHAESRALLTDPRLSADWQNPAFPSPAPYFETLRKVRTPLLGVDDPEHNTQRRMLIPSFSVKRAAALRPRIQEIVDRLLDAMEQQGPPAELVSAFALPVPSMVICALLGVPYADHELFEGLSRTLLQSADPQEVTEARDKLEDYFTALVERKRKEPGDGLLDELIAERLDSGELGHRELVRMAMLLLVAGHETTSNMLSLGTFTLLEHPEQFAALRADPSLLPAAVEELLRFLSIADGMVRVATEDIEIGGVTIRADDGVIFSTSVVNRDGAAYASPDTLDWERSARHHVAFGFGVHQCLGQNLARAEMEIAFGALFARFPGLRLAVPAAEIPVKPAHALQGLVELPVTW
modifications: R63W R74Y mutant of SriC12
With B1 the P450 concentration [5] was 27.6 µM.

B2: Mutant 18 R63W L171A: R63W L171A mutant of codon optimised cytochrome SriC12, SEQ ID NO: 253 (protein)
chain: B1 chain with Y74R, L171A
modifications: R63W L171A mutant of SriC12
For B2, the P450 concentration [5] was 22.4 µM.

B3: Mutant 1 R63W: R63W mutant of codon optimised cytochrome SriC12, SEQ ID NO: 231 (protein)
chain: B1 chain with Y74R
modifications: R63W mutant of SriC12
Molecule B3 has a P450 concentration [5] of 17.6 µM.

B4: Mutant 2 R63Y: R63Y mutant of codon optimised cytochrome SriC12, SEQ ID NO: 233 (protein)
chain: B1 chain with W63Y, Y74R
modifications: R63Y mutant of SriC12
In the case of B4, the P450 concentration [5] is reported as 6.2 µM.

B5: Mutant 20 R74Y L171A R183W: R74Y L171A R183W mutant of codon optimised cytochrome SriC12, SEQ ID NO: 255 (protein)
chain: B1 chain with W63R, L171A, R183W
modifications: R74Y L171A R183W mutant of SriC12
With B5 the P450 concentration [5] was 14.1 µM.

B6: Mutant 22 R63W R74Y L171A: R63W R74Y L171A mutant of codon optimised cytochrome SriC12, SEQ ID NO: 257 (protein)
chain: B1 chain with L171A
modifications: R63W R74Y L171A mutant of SriC12
B6 showed a P450 concentration [5] of 19.9 µM.
